From patent publication US10054582B2, “Compositions and methods for inhibiting HMGB1 activation of melanocytes” (The Procter & Gamble Company, priority 2014, dated 2018)
Entries after “also recorded” stand apart in the source; their conditions may differ.

Experiments:
HMGB1 = HMGB1 quantitation from keratinocytes (ELISA, normalized to total protein); format: cell-based; conditions: for change in HMGB1 level relative to the control (in words): keratinocytes contacted with test agent at different concentrations; for HMGB1 (pg)/protein (ug): keratinocytes, vehicle control 54
Method: Make a 210 mL suspension of keratinocytes at 40,000 cells/mL using suitable media to make a cell suspension. Place 2 mL of the cell suspension into the appropriate number of wells of one or more 12-well plates as needed, using the same velocity and insertion angle for each well as cells are pipetted. Incubate the 12-well plates overnight at 37° C. If the cell plating quality is poor (e.g., cells are not attached to plate or seeding density is uneven), discard and start over. Prepare a dosing media by diluting the test agent to the desired concentration (e.g., from 0.0001% to 10%) in a suitable media (e.g., the same media used to make the cell suspension). […] It is not uncommon for skin care actives to be included in skin care compositions at these levels. Optionally, include sufficient solublizer to provide 0.1% solublizer in the test sample. Add 2 mL of dosing media into each well of a 12-well plate and incubate at 4° C. overnight or until test agent is to be added to the test sample. Place prepared dosing media in the 37° C. incubator for at least 30 minutes, or until pH has equalized. When dosing media is warmed and at proper pH, dose the cells. Incubate the dosed cells at 37° C. for 6 hours. Keratinocytes (or other cells) are plated out in 12 well plates as described above with a seeding density of about 200,000 cells/well and incubated overnight at 37° C. with 5% CO2. The keratinocytes are dosed with a dosing medium containing the test agent and the plates returned to the incubator for another 20 hours. The supernatant for each is collected and the HMGB1 level analyzed using ELISA (USCN Life Sciences) in accordance with manufacturer's instructions. The cells are lysed with Glo Lysis Buffer (Promega) and the protein levels determined using a PIERCE brand bicinchoninic acid protein assay kit per manufacturer's instructions. The values of HMGB1 determined by ELISA and normalized to total protein levels from the cells.

[1] = system: primary human melanocytes; assay: Melanocyte dendricity and size measurements (Incucyte ZOOM live cell imaging); format: cell-based
Excerpt: The ability of a test agent to inhibit dendricity and cell body growth in melanocytes may be determined by contacting a sample of melanocytes with the test agent, measuring the change in dendricity and/or cell body growth and comparing the measured indicator to a control to determine if the test agent is identified as a skin tone agent. In some instances, it is important for the test sample to include a source of HMGB1. For example, an amount of HMGB1 (e.g., recombinant HIS-tagged HMGB1 available from Sigma) may be included in the test sample (e.g., at a final level of 0.1 μg/mL), or the test sample may include another type of cell, which can be stimulated to produce HMGB1. A control may be obtained by measuring the dendricity and/or cell body size of the melanocytes prior to contact with the test agent, measuring the dendricity and/or cell body size of the melanocytes in a control sample and/or from the dendricity and/or cell body size of melanocytes published in scientific literature, if available.
Primary human melanocytes (ATCC) are cultured for 2 passages in T150 flasks. For dendricity experiments, melanocytes are plated into 96 well plates (clear) at a density of about 5000 cells/well. The plates are placed into an Incucyte ZOOM® live cell imaging system (Essen Bioscience, Ann Arbor, Mich.) which resides inside a 37° C., 5% CO2 incubator. 20× images are collected every hour using the phase mode. The Neurite Outgrowth Software Package (Essen) is used to measure cell body size, dendrite length, and cell numbers.

[2] = melanocytes contacted with HMGB1 vs control / before treatment, span of three days

Molecule: hydroxycinnamic acid [HCA]
- change in HMGB1 level relative to the control (in words) (HMGB1): significantly reduced HMGB1 levels relative to the control
- HMGB1 (pg)/protein (ug) (HMGB1; test agent at 0.001%): 29 pg/µg
- HMGB1 (pg)/protein (ug) (HMGB1; test agent at 0.005%): 6 pg/µg
- HMGB1 (pg)/protein (ug) (HMGB1; test agent at 0.02%): 2 pg/µg

Molecule: methyl hydroxycinnamic acid [ME-HCA]
- change in HMGB1 level relative to the control (in words) (HMGB1): significantly reduced HMGB1 levels relative to the control
- HMGB1 (pg)/protein (ug) (HMGB1; test agent at 0.001%): 33 pg/µg
- HMGB1 (pg)/protein (ug) (HMGB1; test agent at 0.005%): 28 pg/µg
- HMGB1 (pg)/protein (ug) (HMGB1; test agent at 0.02%): 4 pg/µg

B1: HMGB1: high-mobility group protein B1, SEQ ID NO: 1; recombinant HIS-tagged HMGB1 available from Sigma (protein, listed as Homo sapiens)
chain: MGKGDPKKPRGKMSSYAFFVQTCREEHKKKHPDASVNFSEFSKKCSERWKTMSAKEKGKFEDMAKADKARYEREMKTYIPPKGETKKKFKDPNAPKRPPSAFFLFCSEYRPKIKGEHPGLSIGDVAKKLGEMWNNTAADDKQPYEKKAAKLKEKYEKDIAAYRAKGKPDAAKKGVVKAEKSKKKKEEEEDEEDEEDEEEEEDEEDEDEEEDDDDE
modifications: His tag
notes: recombinant HIS-tagged HMGB1 available from Sigma
- cell body size of melanocytes [1, 2]: significantly larger cell body size relative to the control; also recorded: increased dendricity and cell body size
- dendricity (dendrite length) of melanocytes [1, 2]: significantly longer dendrites relative to the control; also recorded: increased dendricity
- melanocyte proliferation ([1]; primary human melanocytes contacted with HMGB1): without enhancing melanocyte proliferation
